In patent EP1077677B1, “PROCESS FOR THE MANUFACTURE OF A BIOLOGICALLY ACTIVE COMPOSITION” (JAGOTEC AG, priority 1998, dated 1999):
Converted amounts (≈) assume the structure as drawn.

Assay: physchem
Assay type: physicochemical
Conditions: water
Procedure: In order to determine its water solubility, an excess of metronidazole was added to water, after which the mixture was stirred for 3 days at room temperature.

- solubility thermodynamic at 72 h: 8200 µg/mL (≈ 47.9 mM)
SMILES: Cc1ncc([N+](=O)[O-])n1CCO [metronidazole]
